Test results: ChEMBL document CHEMBL3272024, “(Acylaryloxy)acetic acid diuretics. 1. (2-Alkyl- and 2,2-dialkyl-1-oxo-5-indanyloxy)acetic acids” (J Med Chem, 1977)

Tests used:
[1] = system: Pan troglodytes; experiment: Natriuretic activity in chimpanzee assessed as change sodium level in urine measured per min at 5 mg/kg, po; format: functional
[2] = system: Pan troglodytes; experiment: Ratio of change in urate excretion to change in inulin excretion in chimpanzee in urine at 5 mg/kg, po; format: functional
[3] = Acute toxicity in iv dosed mouse; format: organism-based; details: in vivo
[4] = system: Rattus norvegicus; experiment: Natriuretic activity in po dosed Charles River rat assessed as sodium level in urine per cage collected 0.5 hrs interval relative to 2-(3,6,7-trimethyl-1-oxo-2,3-dihydro-1H-inden-5-yloxy)acetic acid; format: functional
[5] = system: Canis familiaris; experiment: Diuretic activity in dog assessed as sodium level in urine collected for 2 hrs at 5 mg/kg, iv over a period of 5 mins (reference value: 5 to 30 microEq); format: functional, Canis lupus familiaris
[6] = system: Canis familiaris; experiment: Diuretic activity in dog assessed as potassium level in urine collected for 2 hrs at 5 mg/kg, iv over a period of 5 mins (reference value: 5 to 30 microEq); format: functional, Canis lupus familiaris
[7] = system: Canis familiaris; experiment: Diuretic activity in dog assessed as chloride level in urine collected for 2 hrs at 5 mg/kg, iv over a period of 5 mins (reference value: 1 to 10 microEq); format: functional, Canis lupus familiaris
[8] = system: Canis familiaris; experiment: Diuretic activity in dog assessed as urine volume collected for 2 hrs at 5 mg/kg, iv over a period of 5 mins (reference value: 1 to 2 mL); format: functional, Canis lupus familiaris
[9] = system: Canis familiaris; experiment: Diuretic activity in dog assessed as sodium level in urine collected for 2 hrs at 1.5 mg/kg, iv over a period of 5 mins (reference value: 29 microEq); format: functional, Canis lupus familiaris
[10] = system: Canis familiaris; experiment: Diuretic activity in dog assessed as potassium level in urine collected for 2 hrs at 1.5 mg/kg, iv over a period of 5 mins (reference value: 18 microEq); format: functional, Canis lupus familiaris
[11] = system: Canis familiaris; experiment: Diuretic activity in dog assessed as chloride level in urine collected for 2 hrs at 1.5 mg/kg, iv over a period of 5 mins (reference value: 1 microEq); format: functional, Canis lupus familiaris
[12] = system: Canis familiaris; experiment: Diuretic activity in dog assessed as urine volume collected for 2 hrs at 1.5 mg/kg, iv over a period of 5 mins (reference value: 1 mL); format: functional, Canis lupus familiaris

SMILES	Activity [1]	Ratio [2]	further results
CCC1(C2CCCC2)Cc2cc(OCC(=O)O)c(Cl)c(Cl)c2C1=O (stereo unspecified)	231 uEq	0.12	–
CC1(Cc2ccccc2)Cc2cc(OCC(=O)O)c(Cl)c(Cl)c2C1=O (stereo unspecified)	251 uEq	0.18	–
CC1Cc2cc(OCC(=O)O)c(Cl)c(Cl)c2C1=O (stereo unspecified)	–	–	LD50 [3]: 354 mg/kg; Ratio [4]: 1
CCC1Cc2cc(OCC(=O)O)c(Cl)c(Cl)c2C1=O (stereo unspecified)	427 uEq	0.09	LD50 [3]: 245 mg/kg; Ratio [4]: 2.8
CCCC1Cc2cc(OCC(=O)O)c(Cl)c(Cl)c2C1=O (stereo unspecified)	–	0.19	–
CC(C)C1Cc2cc(OCC(=O)O)c(Cl)c(Cl)c2C1=O (stereo unspecified)	649 uEq	0.18	LD50 [3]: 505 mg/kg; Ratio [4]: 3.2; Activity [5]: 281 uEq; Activity [6]: 44 uEq; Activity [7]: 330 uEq; Activity [8]: 4 mL
Cc1c(OCC(=O)O)cc2c(c1Cl)C(=O)C(C(C)C)C2 (stereo unspecified)	185 uEq	0.07	Activity [5]: 218 uEq; Activity [6]: 50 uEq; Activity [7]: 204 uEq; Activity [8]: 3 mL
Cc1c(OCC(=O)O)cc2c(c1C)C(=O)C(C(C)C)C2 (stereo unspecified)	153 uEq	0.15	Activity [5]: 154 uEq; Activity [6]: 15 uEq; Activity [7]: 100 uEq; Activity [8]: 2 mL
CCCCC1Cc2cc(OCC(=O)O)c(Cl)c(Cl)c2C1=O (stereo unspecified)	126 uEq	0.11	–
CC(C)(C)C1Cc2cc(OCC(=O)O)c(Cl)c(Cl)c2C1=O (stereo unspecified)	106 uEq	0	–
Cc1c(OCC(=O)O)cc2c(c1Cl)C(=O)C(C1CCCC1)C2 (stereo unspecified)	141 uEq	0.14	–
Cc1c(OCC(=O)O)cc2c(c1C)C(=O)C(C1CCCC1)C2 (stereo unspecified)	0 uEq	0.43	–
O=C(O)COc1cc2c(c(Cl)c1Cl)C(=O)C(C1CCCCC1)C2 (stereo unspecified)	310 uEq	0.21	–
O=C(O)COc1cc2c(c(Cl)c1Cl)C(=O)C1CCCCC21 (stereo unspecified)	85 uEq	0.2	–
CC1C(=O)c2c(cc(OCC(=O)O)c(Cl)c2Cl)C1c1ccccc1 (stereo unspecified)	64 uEq	0.12	–
CCC1C(=O)c2c(cc(OCC(=O)O)c(Cl)c2Cl)C1c1ccccc1 (stereo unspecified)	223 uEq	0.28	–
CC(C)C1C(=O)c2c(cc(OCC(=O)O)c(Cl)c2Cl)C1c1ccccc1 (stereo unspecified)	240 uEq	0.25	–
O=C(O)COc1cc2c(c(Cl)c1Cl)C(=O)C(C1CCCC1)C2c1ccccc1 (stereo unspecified)	22 uEq	0.25	–
CCC1C(=O)c2c(cc(OCC(=O)O)c(Cl)c2Cl)C1c1ccccn1 (stereo unspecified)	0 uEq	0.08	–
CCC1C(=O)c2c(cc(OCC(=O)O)c(Cl)c2Cl)C1c1cccnc1 (stereo unspecified)	25 uEq	0.07	–
CC1(C)Cc2cc(OCC(=O)O)c(Cl)c(Cl)c2C1=O	535 uEq	0.04	LD50 [3]: 268 mg/kg; Ratio [4]: 3.9
CCC1(C)Cc2cc(OCC(=O)O)c(Cl)c(Cl)c2C1=O (stereo unspecified)	520 uEq	0.07	LD50 [3]: 239 mg/kg; Ratio [4]: 15; Activity [5]: 360 uEq; Activity [6]: 62 uEq; Activity [7]: 450 uEq; Activity [8]: 4 mL
CCCC1(CC)Cc2cc(OCC(=O)O)c(Cl)c(Cl)c2C1=O (stereo unspecified)	341 uEq	0.05	–
Cc1c(OCC(=O)O)cc2c(c1Cl)C(=O)C(C)(C1CCCC1)C2 (stereo unspecified)	86 uEq	0.24	–
C=CCC1(C)Cc2cc(OCC(=O)O)c(Cl)c(Cl)c2C1=O (stereo unspecified)	81 uEq	0.01	Activity [5]: 175 uEq; Activity [6]: 37 uEq; Activity [7]: 171 uEq; Activity [8]: 4 mL

SMILES	Activity [1]	Ratio [2]	further results
O=C(O)COc1cc2c(c(Cl)c1Cl)C(=O)C1(CCCCC1)C2	489 uEq	0.05	–
CC12CCCCC1c1cc(OCC(=O)O)c(Cl)c(Cl)c1C2=O (stereo unspecified)	406 uEq	0.39	–
CC1(C)C(=O)c2c(cc(OCC(=O)O)c(Cl)c2Cl)C1c1ccccc1 (stereo unspecified)	22 uEq	0.1	–
CCC1(C)C(=O)c2c(cc(OCC(=O)O)c(Cl)c2Cl)C1c1ccccc1 (stereo unspecified)	0 uEq	0	–
CCC1Cc2cc(OCc3nnn[nH]3)c(Cl)c(Cl)c2C1=O (stereo unspecified)	28 uEq	0.11	–
CC(C)C1Cc2cc(OCc3nnn[nH]3)c(Cl)c(Cl)c2C1=O (stereo unspecified)	42 uEq	0.07	–
CCC1C(=O)c2c(cc(OCc3nnn[nH]3)c(Cl)c2Cl)C1c1ccccc1 (stereo unspecified)	5 uEq	0.06	–
O=C1c2c(cc(OCc3nnn[nH]3)c(Cl)c2Cl)CC1C1CCCC1 (stereo unspecified)	56 uEq	0.18	–
CC(C)C1(C)Cc2cc(OCc3nnn[nH]3)c(Cl)c(Cl)c2C1=O (stereo unspecified)	174 uEq	0.17	–
O=C1c2c(cc(OCc3nnn[nH]3)c(Cl)c2Cl)CC12CCCCC2	0 uEq	0.02	–
CC1c2cc(OCc3nnn[nH]3)c(Cl)c(Cl)c2C(=O)C1C1CCCC1 (stereo unspecified)	19 uEq	0.07	–
O=C1c2c(cc(OCc3nnn[nH]3)c(Cl)c2Cl)CC12CCCC2	0 uEq	0.05	–
O=C(O)COc1cc2c(c(Cl)c1Cl)C(=O)C(CC1CCCC1)C2 (stereo unspecified)	105 uEq	0.05	–
O=C(O)COc1cc2c(c(Cl)c1Cl)C(=O)C1(CCCC1)C2	624 uEq	0.11	Activity [5]: 330 uEq; Activity [6]: 47 uEq; Activity [7]: 254 uEq; Activity [8]: 5 mL
CC(C)C1(C)Cc2cc(OCC(=O)O)c(Cl)c(Cl)c2C1=O (racemic)	–	–	Activity ([1]; 5 mg/kg): 506 uEq; Ratio ([2]; 5 mg/kg): 0.03; LD50 [3]: 244 mg/kg; Ratio [4]: 53; Activity [5]: 185 uEq; Activity [6]: 35 uEq; Activity [7]: 218 uEq; Activity [8]: 2 mL
CC1(C2CCCC2)Cc2cc(OCC(=O)O)c(Cl)c(Cl)c2C1=O (racemic)	–	–	Activity ([1]; 5 mg/kg): 425 uEq; Ratio ([2]; 5 mg/kg): 0.2; LD50 [3]: 213 mg/kg; Ratio [4]: 5.4; Activity [5]: 454 uEq; Activity [6]: 48 uEq; Activity [7]: 478 uEq; Activity [8]: 4 mL
CC(C)C1(C)Cc2cc(OCC(=O)O)c(Cl)c(Cl)c2C1=O (single isomer, unassigned; (+))	–	–	Activity ([1]; 5 mg/kg): 1593 uEq; Ratio ([2]; 5 mg/kg): 0.41
O=C(O)COc1cc2c(c(Cl)c1Cl)C(=O)C(C1CCCC1)C2 (single isomer, unassigned; (+))	–	–	Activity ([1]; 5 mg/kg): 300 uEq; Ratio ([2]; 5 mg/kg): 0.26
O=C(O)COc1cc2c(c(Cl)c1Cl)C(=O)C(C1CCCC1)C2 (single isomer, unassigned; (-))	–	–	Activity ([1]; 5 mg/kg): 292 uEq; Ratio ([2]; 5 mg/kg): 0.1
CC1(C2CCCC2)Cc2cc(OCC(=O)O)c(Cl)c(Cl)c2C1=O (single isomer, unassigned; enantiomer 1)	–	–	Activity ([1]; 5 mg/kg): 325 uEq; Ratio ([2]; 5 mg/kg): 0.1
CC(C)C1(C)Cc2cc(OCC(=O)O)c(Cl)c(Cl)c2C1=O (single isomer, unassigned; enantiomer 2)	–	–	Activity ([1]; 5 mg/kg): 992 uEq; Ratio ([2]; 5 mg/kg): 0.06
CC1(C2CCCC2)Cc2cc(OCC(=O)O)c(Cl)c(Cl)c2C1=O (single isomer, unassigned; enantiomer 2)	–	–	Activity ([1]; 5 mg/kg): 268 uEq; Ratio ([2]; 5 mg/kg): 0.17
O=C(O)COc1cc2c(c(Cl)c1Cl)C(=O)C(C1CCCC1)C2 (stereo in doubt; 4p)	–	–	Activity ([1]; 5 mg/kg): 223 uEq; Ratio ([2]; 5 mg/kg): 0.18; LD50 [3]: 222 mg/kg; Ratio [4]: 1.8; Activity [5]: 20 uEq; Activity [6]: 37 uEq; Activity [7]: 5 uEq; Activity [8]: 2 mL
NS(=O)(=O)c1cc(C(=O)O)c(NCc2ccco2)cc1Cl [FUROSEMIDE]	1035 uEq	-0.02	Activity [9]: 960 uEq; Activity [10]: 141 uEq; Activity [11]: 1081 uEq; Activity [12]: 3 mL
NS(=O)(=O)c1cc2c(cc1Cl)NCNS2(=O)=O [HYDROCHLOROTHIAZIDE]	144 uEq	–	Activity [5]: 166 uEq; Activity [6]: 33 uEq; Activity [7]: 156 uEq; Activity [8]: 3 mL
